According to ChEMBL document CHEMBL5291721, “A preclinical secondary pharmacology resource illuminates target-adverse drug reaction associations of marketed drugs” (Nat Commun, 2023):

How the values were obtained:
[1] = target: Gamma-aminobutyric acid receptor subunit alpha-1 (Rattus norvegicus, UniProt P62813)
[2] = target: 5-hydroxytryptamine receptor 2B (Homo sapiens, UniProt P41595); assay type: functional, cell-based
D(3) dopamine receptor = D(3) dopamine receptor (Homo sapiens, UniProt P35462)
Sequence of D(3) dopamine receptor (P35462 whole entry): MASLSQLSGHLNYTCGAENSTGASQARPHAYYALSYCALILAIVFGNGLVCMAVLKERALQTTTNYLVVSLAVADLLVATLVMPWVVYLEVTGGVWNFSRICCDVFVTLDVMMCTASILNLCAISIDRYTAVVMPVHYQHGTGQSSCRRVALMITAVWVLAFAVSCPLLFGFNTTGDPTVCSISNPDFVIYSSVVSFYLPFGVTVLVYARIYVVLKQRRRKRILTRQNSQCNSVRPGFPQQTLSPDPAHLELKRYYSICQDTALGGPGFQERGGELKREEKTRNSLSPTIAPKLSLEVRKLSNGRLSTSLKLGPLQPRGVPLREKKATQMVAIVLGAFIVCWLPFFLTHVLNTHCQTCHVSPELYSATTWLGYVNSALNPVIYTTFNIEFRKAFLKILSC

[3] = target: Sodium-dependent noradrenaline transporter (Homo sapiens, UniProt P23975)
Sequence of Sodium-dependent noradrenaline transporter (P23975 whole entry): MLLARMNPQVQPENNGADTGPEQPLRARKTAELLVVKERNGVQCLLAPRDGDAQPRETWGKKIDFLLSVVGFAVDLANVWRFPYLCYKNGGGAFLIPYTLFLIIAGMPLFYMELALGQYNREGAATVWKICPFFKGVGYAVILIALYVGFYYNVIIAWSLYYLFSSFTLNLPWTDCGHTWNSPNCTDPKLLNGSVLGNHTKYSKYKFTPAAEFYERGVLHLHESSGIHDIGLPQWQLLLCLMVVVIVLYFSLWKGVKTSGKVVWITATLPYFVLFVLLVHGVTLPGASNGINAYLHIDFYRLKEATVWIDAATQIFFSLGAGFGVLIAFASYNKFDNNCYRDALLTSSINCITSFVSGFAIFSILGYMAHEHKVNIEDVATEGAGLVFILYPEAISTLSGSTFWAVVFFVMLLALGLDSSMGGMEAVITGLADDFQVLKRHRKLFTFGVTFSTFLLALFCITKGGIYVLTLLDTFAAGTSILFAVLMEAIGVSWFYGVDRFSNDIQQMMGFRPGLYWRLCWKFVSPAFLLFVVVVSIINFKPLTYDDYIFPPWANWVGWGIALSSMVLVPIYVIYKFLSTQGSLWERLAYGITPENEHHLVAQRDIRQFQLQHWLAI

[4] = target: cGMP-inhibited 3',5'-cyclic phosphodiesterase 3A (Homo sapiens, UniProt Q14432); assay type: functional
Sequence of cGMP-inhibited 3',5'-cyclic phosphodiesterase 3A (Q14432 whole entry): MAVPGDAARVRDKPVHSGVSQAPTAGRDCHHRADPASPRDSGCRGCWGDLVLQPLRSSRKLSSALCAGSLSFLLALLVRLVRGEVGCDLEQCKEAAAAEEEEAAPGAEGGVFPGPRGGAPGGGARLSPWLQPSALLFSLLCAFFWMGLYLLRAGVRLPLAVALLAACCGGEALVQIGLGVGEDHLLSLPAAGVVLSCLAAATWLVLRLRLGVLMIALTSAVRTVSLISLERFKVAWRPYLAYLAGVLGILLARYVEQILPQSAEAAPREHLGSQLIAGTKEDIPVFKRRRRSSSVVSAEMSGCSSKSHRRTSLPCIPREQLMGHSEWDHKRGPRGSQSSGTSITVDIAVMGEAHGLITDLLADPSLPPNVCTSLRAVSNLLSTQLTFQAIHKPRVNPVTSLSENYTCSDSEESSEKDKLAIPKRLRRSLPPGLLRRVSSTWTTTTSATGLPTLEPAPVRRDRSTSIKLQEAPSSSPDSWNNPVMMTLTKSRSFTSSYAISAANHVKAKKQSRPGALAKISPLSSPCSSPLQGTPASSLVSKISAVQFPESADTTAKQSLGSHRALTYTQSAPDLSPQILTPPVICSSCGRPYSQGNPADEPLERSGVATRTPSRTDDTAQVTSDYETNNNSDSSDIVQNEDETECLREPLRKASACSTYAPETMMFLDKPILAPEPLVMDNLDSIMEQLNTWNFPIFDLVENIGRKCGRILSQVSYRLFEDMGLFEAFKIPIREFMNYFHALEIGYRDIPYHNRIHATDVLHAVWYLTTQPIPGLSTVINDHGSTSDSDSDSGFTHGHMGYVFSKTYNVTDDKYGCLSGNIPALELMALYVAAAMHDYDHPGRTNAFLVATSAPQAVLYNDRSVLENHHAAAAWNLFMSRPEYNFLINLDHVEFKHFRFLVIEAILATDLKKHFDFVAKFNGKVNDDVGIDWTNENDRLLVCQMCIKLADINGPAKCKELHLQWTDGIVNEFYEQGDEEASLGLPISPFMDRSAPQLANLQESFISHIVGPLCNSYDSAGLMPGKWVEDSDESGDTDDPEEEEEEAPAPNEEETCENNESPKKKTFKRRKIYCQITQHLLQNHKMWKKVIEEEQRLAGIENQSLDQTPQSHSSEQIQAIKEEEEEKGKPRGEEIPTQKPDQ

Progesterone receptor = target: T1, Progesterone receptor (Homo sapiens, UniProt P06401)
T1 sequence (P06401 whole entry): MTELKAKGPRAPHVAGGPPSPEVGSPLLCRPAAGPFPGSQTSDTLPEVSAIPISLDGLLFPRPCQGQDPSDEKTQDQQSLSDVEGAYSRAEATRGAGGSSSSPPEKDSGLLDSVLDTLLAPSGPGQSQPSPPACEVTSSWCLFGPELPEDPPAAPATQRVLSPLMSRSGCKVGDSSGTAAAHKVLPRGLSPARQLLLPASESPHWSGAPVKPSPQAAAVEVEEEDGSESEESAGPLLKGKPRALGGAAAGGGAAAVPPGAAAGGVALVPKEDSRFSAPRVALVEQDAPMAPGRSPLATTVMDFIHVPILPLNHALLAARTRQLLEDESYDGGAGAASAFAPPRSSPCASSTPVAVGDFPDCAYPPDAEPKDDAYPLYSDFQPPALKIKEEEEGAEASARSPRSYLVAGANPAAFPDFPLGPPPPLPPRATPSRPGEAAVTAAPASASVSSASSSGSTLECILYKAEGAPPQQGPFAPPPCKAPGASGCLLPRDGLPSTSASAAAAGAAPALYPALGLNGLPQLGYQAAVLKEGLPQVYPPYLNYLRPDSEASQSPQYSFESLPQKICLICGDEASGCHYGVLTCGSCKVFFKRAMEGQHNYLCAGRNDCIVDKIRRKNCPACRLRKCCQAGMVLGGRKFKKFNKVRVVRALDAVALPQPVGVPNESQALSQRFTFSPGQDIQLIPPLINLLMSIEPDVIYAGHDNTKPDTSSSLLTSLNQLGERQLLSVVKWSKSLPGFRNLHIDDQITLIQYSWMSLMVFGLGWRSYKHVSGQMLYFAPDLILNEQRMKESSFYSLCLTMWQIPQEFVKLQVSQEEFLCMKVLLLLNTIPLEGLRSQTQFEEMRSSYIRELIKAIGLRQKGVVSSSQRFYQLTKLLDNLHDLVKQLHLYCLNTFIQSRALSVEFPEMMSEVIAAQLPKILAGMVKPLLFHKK

Androgen receptor = target: T2, Androgen receptor (Homo sapiens, UniProt P10275)
T2 sequence (P10275 whole entry): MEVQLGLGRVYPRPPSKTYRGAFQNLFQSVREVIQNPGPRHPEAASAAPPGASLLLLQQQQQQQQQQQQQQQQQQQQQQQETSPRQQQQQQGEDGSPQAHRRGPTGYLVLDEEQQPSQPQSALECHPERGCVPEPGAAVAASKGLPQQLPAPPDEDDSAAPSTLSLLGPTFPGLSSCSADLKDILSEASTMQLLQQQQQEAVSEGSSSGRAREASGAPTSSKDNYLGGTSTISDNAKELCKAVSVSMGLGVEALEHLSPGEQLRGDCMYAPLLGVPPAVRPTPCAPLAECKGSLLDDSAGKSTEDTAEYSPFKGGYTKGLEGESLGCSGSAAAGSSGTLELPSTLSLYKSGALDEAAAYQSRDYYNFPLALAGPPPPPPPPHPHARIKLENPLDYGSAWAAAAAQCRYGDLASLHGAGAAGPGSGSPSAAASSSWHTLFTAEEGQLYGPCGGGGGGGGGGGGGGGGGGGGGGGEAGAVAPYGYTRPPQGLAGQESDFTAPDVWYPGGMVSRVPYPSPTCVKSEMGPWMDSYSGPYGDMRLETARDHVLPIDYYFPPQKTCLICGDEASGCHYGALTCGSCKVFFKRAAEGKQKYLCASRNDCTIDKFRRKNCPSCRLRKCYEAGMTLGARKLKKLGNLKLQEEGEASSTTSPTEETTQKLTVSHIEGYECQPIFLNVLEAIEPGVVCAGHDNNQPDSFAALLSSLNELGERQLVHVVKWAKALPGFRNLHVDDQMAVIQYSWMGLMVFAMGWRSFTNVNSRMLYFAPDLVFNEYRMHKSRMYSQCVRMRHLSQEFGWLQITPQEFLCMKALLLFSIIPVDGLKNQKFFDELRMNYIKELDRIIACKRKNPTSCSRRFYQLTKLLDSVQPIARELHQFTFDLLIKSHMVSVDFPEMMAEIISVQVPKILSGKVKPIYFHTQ

[5] = target: Voltage-gated inwardly rectifying potassium channel KCNH2 (Homo sapiens, UniProt Q12809); assay type: functional; settings: read-out: AC50
Histamine H3 receptor = Histamine H3 receptor (Homo sapiens, UniProt Q9Y5N1)
[6] = target: 3',5'-cyclic-AMP phosphodiesterase 4A (Homo sapiens, UniProt P27815); assay type: functional
Sequence of 3',5'-cyclic-AMP phosphodiesterase 4A (P27815 whole entry): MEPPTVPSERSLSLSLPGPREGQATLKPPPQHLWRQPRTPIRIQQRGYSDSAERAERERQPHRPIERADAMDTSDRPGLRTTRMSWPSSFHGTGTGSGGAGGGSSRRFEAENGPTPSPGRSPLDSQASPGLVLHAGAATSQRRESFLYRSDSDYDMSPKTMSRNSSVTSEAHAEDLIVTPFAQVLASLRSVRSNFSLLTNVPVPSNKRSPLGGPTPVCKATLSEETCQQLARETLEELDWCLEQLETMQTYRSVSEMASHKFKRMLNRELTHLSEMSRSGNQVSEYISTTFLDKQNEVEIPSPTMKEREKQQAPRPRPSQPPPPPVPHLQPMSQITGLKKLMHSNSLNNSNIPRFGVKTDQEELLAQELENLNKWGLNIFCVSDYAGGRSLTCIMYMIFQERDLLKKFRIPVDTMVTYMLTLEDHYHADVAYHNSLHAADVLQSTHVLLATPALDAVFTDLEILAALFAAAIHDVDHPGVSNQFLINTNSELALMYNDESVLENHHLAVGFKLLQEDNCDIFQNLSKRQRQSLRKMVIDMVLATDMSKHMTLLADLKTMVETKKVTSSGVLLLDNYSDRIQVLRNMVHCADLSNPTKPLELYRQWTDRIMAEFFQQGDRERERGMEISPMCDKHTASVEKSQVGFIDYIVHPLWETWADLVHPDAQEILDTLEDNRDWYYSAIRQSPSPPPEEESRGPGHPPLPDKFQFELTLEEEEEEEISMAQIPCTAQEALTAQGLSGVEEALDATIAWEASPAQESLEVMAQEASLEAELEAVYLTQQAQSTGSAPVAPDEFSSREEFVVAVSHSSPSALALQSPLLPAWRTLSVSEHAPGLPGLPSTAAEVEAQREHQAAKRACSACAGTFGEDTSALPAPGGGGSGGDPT

[7] = target: Vascular endothelial growth factor receptor 2 (Homo sapiens, UniProt P35968); assay type: functional
Sequence of Vascular endothelial growth factor receptor 2 (P35968 whole entry): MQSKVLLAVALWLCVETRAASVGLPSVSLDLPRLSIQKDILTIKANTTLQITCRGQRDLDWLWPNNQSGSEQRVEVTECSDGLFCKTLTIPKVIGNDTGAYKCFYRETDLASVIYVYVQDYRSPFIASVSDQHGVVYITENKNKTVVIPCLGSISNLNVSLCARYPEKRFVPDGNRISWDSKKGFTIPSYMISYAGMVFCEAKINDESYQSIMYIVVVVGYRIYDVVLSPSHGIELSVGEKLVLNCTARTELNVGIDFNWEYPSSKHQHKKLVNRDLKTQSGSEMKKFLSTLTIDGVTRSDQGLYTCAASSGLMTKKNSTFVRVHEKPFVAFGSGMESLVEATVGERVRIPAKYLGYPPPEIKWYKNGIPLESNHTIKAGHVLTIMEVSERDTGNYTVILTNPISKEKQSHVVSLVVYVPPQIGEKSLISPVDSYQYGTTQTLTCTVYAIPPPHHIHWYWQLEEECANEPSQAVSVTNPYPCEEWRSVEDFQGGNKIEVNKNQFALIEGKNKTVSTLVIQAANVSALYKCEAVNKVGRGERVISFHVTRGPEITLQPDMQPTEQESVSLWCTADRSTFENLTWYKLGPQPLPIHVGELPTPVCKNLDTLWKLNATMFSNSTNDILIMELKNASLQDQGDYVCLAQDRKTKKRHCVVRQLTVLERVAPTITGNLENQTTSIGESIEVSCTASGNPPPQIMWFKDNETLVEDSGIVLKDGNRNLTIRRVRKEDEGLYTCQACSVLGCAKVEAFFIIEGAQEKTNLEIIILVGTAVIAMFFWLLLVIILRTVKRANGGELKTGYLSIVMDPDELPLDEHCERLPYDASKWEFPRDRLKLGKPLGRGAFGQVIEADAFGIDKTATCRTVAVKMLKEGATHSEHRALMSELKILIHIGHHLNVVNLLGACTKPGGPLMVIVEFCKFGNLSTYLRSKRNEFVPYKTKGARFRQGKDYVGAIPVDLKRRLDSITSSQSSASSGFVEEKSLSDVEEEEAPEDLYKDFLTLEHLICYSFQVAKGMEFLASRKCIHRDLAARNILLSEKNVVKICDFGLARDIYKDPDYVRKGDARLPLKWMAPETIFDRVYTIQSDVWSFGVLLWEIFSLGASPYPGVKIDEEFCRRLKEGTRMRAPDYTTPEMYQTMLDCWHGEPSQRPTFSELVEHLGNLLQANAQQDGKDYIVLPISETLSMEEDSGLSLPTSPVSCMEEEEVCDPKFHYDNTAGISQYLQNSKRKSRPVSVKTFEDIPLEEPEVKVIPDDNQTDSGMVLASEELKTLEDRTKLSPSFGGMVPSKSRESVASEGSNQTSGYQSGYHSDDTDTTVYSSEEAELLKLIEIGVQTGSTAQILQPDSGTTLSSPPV

[8] = target: Gamma-aminobutyric acid receptor subunit alpha-1/alpha-2/beta-2/gamma-2 (Homo sapiens, UniProt P14867+P18507+P47869+P47870); assay type: protein-complex assay
Thromboxane A2 receptor = target: T3, Thromboxane A2 receptor (Homo sapiens, UniProt P21731)
T3 sequence (P21731 whole entry): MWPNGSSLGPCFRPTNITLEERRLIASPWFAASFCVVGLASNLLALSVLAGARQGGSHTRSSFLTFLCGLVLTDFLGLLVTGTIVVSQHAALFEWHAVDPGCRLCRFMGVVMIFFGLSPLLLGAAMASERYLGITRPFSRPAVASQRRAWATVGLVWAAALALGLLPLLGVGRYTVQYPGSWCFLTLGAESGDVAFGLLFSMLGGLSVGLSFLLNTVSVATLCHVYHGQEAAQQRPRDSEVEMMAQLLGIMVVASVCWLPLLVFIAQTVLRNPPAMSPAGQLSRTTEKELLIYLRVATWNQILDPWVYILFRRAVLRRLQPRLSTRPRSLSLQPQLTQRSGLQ
Also: assay procedure not described here.

Sequence of 5-hydroxytryptamine receptor 2B (P41595 whole entry): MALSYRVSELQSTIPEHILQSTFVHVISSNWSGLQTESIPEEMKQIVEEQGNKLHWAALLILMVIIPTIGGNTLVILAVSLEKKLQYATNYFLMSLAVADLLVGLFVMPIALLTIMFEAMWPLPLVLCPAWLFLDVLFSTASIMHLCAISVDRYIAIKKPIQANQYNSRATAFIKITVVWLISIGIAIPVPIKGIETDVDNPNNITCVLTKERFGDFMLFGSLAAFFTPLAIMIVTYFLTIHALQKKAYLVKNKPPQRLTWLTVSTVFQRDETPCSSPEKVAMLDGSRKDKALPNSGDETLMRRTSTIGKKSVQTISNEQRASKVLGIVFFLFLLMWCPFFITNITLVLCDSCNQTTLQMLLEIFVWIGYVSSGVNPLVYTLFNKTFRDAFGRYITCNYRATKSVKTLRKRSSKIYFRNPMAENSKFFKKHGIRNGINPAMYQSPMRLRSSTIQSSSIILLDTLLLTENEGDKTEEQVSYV

Row | SMILES | AC50 [1] | AC50 [2] | AC50 (D(3) dopamine receptor) | AC50 [3] | AC50 [4] | AC50 (Progesterone receptor) | AC50 (Androgen receptor) | AC50 [5] | AC50 (Histamine H3 receptor) | AC50 [6] | AC50 [7] | AC50 [8] | AC50 (Thromboxane A2 receptor)
1 | O=C(Oc1ccc2c(c1)CCCN2C(=O)C(Cl)Cl)c1ccco1 [QUINFAMIDE] | > 30 µM | > 30 µM | > 30 µM | > 30 µM | > 30 µM | > 30 µM | > 30 µM | > 30 µM | > 30 µM | > 30 µM |  |  | 
2 | CC[C@H]1CN2CC[C@H]1C[C@H]2[C@H](O)c1ccnc2ccc(OC)cc12 [HYDROQUININE] | > 30 µM | > 30 µM | > 30 µM | > 30 µM | > 30 µM | > 30 µM | > 30 µM | 10 µM | > 30 µM | > 30 µM | > 30 µM |  | 
3 | N=C1CCCN1Cc1[nH]c(=O)[nH]c(=O)c1Cl | > 30 µM | > 30 µM |  | > 30 µM | > 30 µM | > 30 µM | > 30 µM | > 30 µM | > 30 µM | > 30 µM | > 30 µM |  | 
4 | CCCCS(=O)(=O)N[C@@H](Cc1ccc(OCCCCC2CCNCC2)cc1)C(=O)O [TIROFIBAN] | > 30 µM | > 30 µM | > 30 µM | > 30 µM | > 30 µM | > 30 µM | > 30 µM | > 30 µM | > 30 µM | > 30 µM |  |  | 
5 | CC[C@]1(O)C[C@H]2CN(CCc3c([nH]c4ccccc34)[C@@](C(=O)OC)(c3cc4c(cc3OC)N(C=O)[C@H]3[C@@](O)(C(=O)OC)[C@H](OC(C)=O)[C@]5(CC)C=CCN6CC[C@]43[C@@H]65)C2)C1 [VINCRISTINE] | > 30 µM | > 30 µM | > 30 µM | > 30 µM | > 30 µM | > 30 µM | > 30 µM |  | > 30 µM | > 30 µM |  |  | 
6 | CC(C)(C)CC(C)(C)c1ccc(O)c(Cc2ccc(Cl)cc2Cl)c1 [CLOFOCTOL] | > 30 µM | > 30 µM | 1.48 µM | 3.4 µM | 5.81 µM | 1.15 µM | 14.9 µM | 11 µM | > 30 µM | 5.93 µM | > 30 µM |  | 
7 | Nc1ccncc1N [AMIFAMPRIDINE] | > 30 µM | > 30 µM | > 30 µM | > 30 µM | > 30 µM | > 30 µM |  | > 30 µM | > 30 µM | > 30 µM | > 30 µM | > 30 µM | 
8 | CC(CNC(=O)c1ccccc1)C(=O)OCC(=O)[C@@]12OC(C)(C)O[C@@H]1C[C@H]1[C@@H]3CCC4=CC(=O)C=C[C@]4(C)[C@@]3(F)[C@@H](O)C[C@@]12C (stereo partly drawn) [TRIAMCINOLONE BENETONIDE] | > 30 µM | > 30 µM | > 30 µM | > 30 µM | > 30 µM | > 30 µM | > 30 µM | > 30 µM | > 30 µM | > 30 µM | > 30 µM |  | 
9 | CN1CCN(C2=Nc3ccccc3Sc3ccc(Cl)cc32)CC1 [CLOTHIAPINE] | > 30 µM | > 30 µM | 0.0061 µM | 0.76 µM | > 30 µM | > 30 µM | > 30 µM | 4.1 µM | > 30 µM | > 30 µM |  |  | 
10 | CC(=O)OCC(=O)[C@@]1(O)CC[C@H]2[C@@H]3CCC4=CC(=O)C=C[C@]4(C)[C@@]3(Cl)[C@@H](Cl)C[C@@]21C [DICHLORISONE ACETATE] | > 30 µM | > 30 µM | > 30 µM | > 30 µM | > 30 µM | 0.173 µM | 0.128 µM | > 30 µM | > 30 µM | > 30 µM | > 30 µM |  | 
11 | CC1=C(/C=C/C(C)=C/C=C/C(C)=C/C=C/C=C(C)/C=C/C=C(C)/C=C/C2=C(C)CCCC2(C)C)C(C)(C)CCC1 [BETA CAROTENE] | > 30 µM | > 30 µM | 20.8 µM | > 30 µM | > 30 µM | > 30 µM | > 30 µM |  | > 30 µM | > 30 µM | > 30 µM |  | 
12 | O=C(O)c1ccccc1C(=O)Nc1ccc(S(=O)(=O)Nc2nccs2)cc1 [PHTHALYLSULFATHIAZOLE] | > 30 µM | > 30 µM | > 30 µM | > 30 µM | > 30 µM | > 30 µM | > 30 µM | > 30 µM | > 30 µM | > 30 µM | > 30 µM |  | 
13 | OC(c1ccccc1)(c1ccccc1)C12CC[N+](CCOCc3ccccc3)(CC1)CC2 | > 30 µM | > 30 µM | > 30 µM | 2.73 µM | > 30 µM | > 30 µM | > 30 µM |  | > 30 µM | 15.6 µM |  |  | 
14 | Nc1nc2nc[nH]c2c(=S)[nH]1 [THIOGUANINE] | > 30 µM | > 30 µM | > 30 µM | > 30 µM | > 30 µM | > 30 µM | > 30 µM |  | > 30 µM | > 30 µM |  |  | 
15 | OC(CCN1CCCCC1)(c1ccccc1)c1ccccc1 [PRIDINOL] | > 30 µM | > 30 µM |  | > 30 µM | > 30 µM | > 30 µM | > 30 µM | 8.8 µM | > 30 µM | > 30 µM | > 30 µM |  | 
16 | O=[N+]([O-])c1cn2c(n1)OC[C@@H](OCc1ccc(OC(F)(F)F)cc1)C2 [PRETOMANID] | > 30 µM | > 30 µM | > 30 µM | > 30 µM | > 30 µM | > 30 µM | > 30 µM |  | > 30 µM | > 30 µM |  |  | > 30 µM
